Values after ≈ are worked out from the molar mass of the structure shown. Read-outs that look alike come from different tables or passages of the source.
Assays:
[1] = system: MRSA ATCC 700699 (NRS1, VISA); test: MIC/MBC broth microdilution, NRS1 (ATCC 700699); format: cell-based; conditions: Staphylococcus aureus
Experimental: (§1) Determination of minimum inhibitory concentration (MIC). The MICs of the lead thiazole compound (compound 1a) and nine derivatives tested against all 18 MRSA strains were determined, in triplicate samples, using the broth microdilution method in accordance with the recommendations contained in the CLSI guidelines.

MRSA NRS384 (USA300) = test: MIC/MBC broth microdilution, NRS384 (USA300); format: cell-based; conditions: Staphylococcus aureus
Experimental: as §1

MRSA USA400 (NRS123) = test: MIC/MBC broth microdilution, NRS123 (USA400); format: cell-based; conditions: Staphylococcus aureus
Experimental: as §1

VISA HIP07256 (NRS19) = test: MIC/MBC broth microdilution, NRS19 (VISA HIP07256); format: cell-based; conditions: Staphylococcus aureus
Experimental: as §1

MRSA USA500 (NRS385) = test: MIC/MBC broth microdilution, NRS385 (USA500); format: cell-based; conditions: Staphylococcus aureus
Experimental: as §1

NRS194 = test: MIC/MBC broth microdilution, NRS194; format: cell-based; conditions: Staphylococcus aureus; for MIC: Table 8, read-out: MIC
Experimental: as §1

NRS107 = test: MIC/MBC broth microdilution, NRS107; format: cell-based; conditions: Staphylococcus aureus; for MIC: Table 8, read-out: MIC
Experimental: as §1

MRSA ATCC 43300 = test: MIC/MBC broth microdilution, MRSA ATCC 43300; format: cell-based, Staphylococcus aureus; conditions: Staphylococcus aureus; for MIC: read-out: MIC
Experimental: as §1

VISA LIM 3 (NRS37) = test: MIC/MBC broth microdilution, NRS37 (VISA LIM 3); format: cell-based; conditions: Staphylococcus aureus, Table 8, NRS37 (VISA); for MIC: read-out: MIC
Experimental: as §1

NRS119 = test: MIC/MBC broth microdilution, NRS119; format: cell-based; conditions: Staphylococcus aureus, Table 8, NRS119; for MIC: read-out: MIC
Experimental: as §1

[2] = Table 8, NRS1 (VISA), triplicates, 20 hours, read-out: MIC
[3] = Table 8, NRS19 (VISA), read-out: MIC
[4] = Table 6, MRSA ATCC 43300, 128 μM down to 1.0 μM, 20 hours

MIC (NRS194) [µM] | MIC [1, 2] [µM] | MIC (MRSA NRS384 (USA300); Table 8, NRS384, read-out: MIC) [µM] | MIC (MRSA USA400 (NRS123); Table 8, NRS123, read-out: MIC) [µM] | MIC (NRS107) [µM] | MIC (VISA HIP07256 (NRS19); [3]) [µM] | MIC (MRSA USA500 (NRS385); Table 8, NRS385, read-out: MIC) [µM] | MIC (MRSA ATCC 43300; [4]) [µM] | MIC (MRSA ATCC 43300; Table 8, ATCC 43300) [µM] | MIC (VISA LIM 3 (NRS37)) [µM] | MIC (NRS119) [µM] | SMILES | also measured
 |  |  |  |  |  |  |  |  |  |  | CCCCCCCCCc1ccc(-c2nc(C)c(/C(C)=N/NC(=N)N)s2)cc1 [Compound 1f] | MIC ([1]; Table 2, MRSA ATCC 700699, read-out: Minimum Inhibitory Concentration): 1.1 µg/mL; MIC (MRSA NRS384 (USA300); Table 2, MRSA USA300, read-out: Minimum Inhibitory Concentration): 2.2 µg/mL; MIC (MRSA USA400 (NRS123); Table 2, MRSA USA400, read-out: Minimum Inhibitory Concentration): 4.4 µg/mL; MIC (VISA HIP07256 (NRS19); Table 2, VISA HIP07256, read-out: Minimum Inhibitory Concentration): 2.2 µg/mL; MIC (MRSA USA500 (NRS385); Table 2, MRSA USA500, read-out: Minimum Inhibitory Concentration): 4.4 µg/mL
128 (≈ 36.9 µg/mL) | 64 | 128 | 128 | 64 (≈ 18.5 µg/mL) | 128 | 128 | > 128 | 128 (≈ 36.9 µg/mL) | 64 (≈ 18.5 µg/mL) | 64 (≈ 18.5 µg/mL) | C/C(=N\NC(=N)N)c1sc(-c2ccc(N)cc2)nc1C [Compound M2, (E)-2-(1-(2-(4-aminophenyl)-4-methylthiazol-5-yl)ethylidene)hydrazinecarboximidamide] | MBC (NRS194; Table 8, read-out: MBC): 128 µM (≈ 36.9 µg/mL); MBC ([1]; Table 8, NRS1 (VISA), read-out: MBC): 128 µM (≈ 36.9 µg/mL); MBC (MRSA NRS384 (USA300); Table 8, NRS384, read-out: MBC): 128 µM (≈ 36.9 µg/mL); MBC (MRSA USA400 (NRS123); Table 8, NRS123, read-out: MBC): 128 µM (≈ 36.9 µg/mL); MBC (NRS107; Table 8, read-out: MBC): 64 µM (≈ 18.5 µg/mL); MBC (VISA HIP07256 (NRS19); Table 8, NRS19 (VISA), read-out: MBC): 128 µM (≈ 36.9 µg/mL); MBC (MRSA USA500 (NRS385); Table 8, NRS385, read-out: MBC): 128 µM (≈ 36.9 µg/mL); MBC (MRSA ATCC 43300; Table 8, ATCC 43300, read-out: MBC): 128 µM (≈ 36.9 µg/mL); MBC (VISA LIM 3 (NRS37); read-out: MBC): 128 µM (≈ 36.9 µg/mL); MBC (NRS119; read-out: MBC): 64 µM (≈ 18.5 µg/mL)
> 128 | > 128 | > 128 | > 128 | > 128 | > 128 | > 128 | > 128 | > 128 | > 128 | > 128 | CC(=O)c1sc(-c2ccc(-c3cccc4ccccc34)cc2)nc1C [Compound M6, 1-(4-methyl-2-(4-(naphthalen-1-yl)phenyl)thiazol-5-yl)ethanone] | 
> 128 | > 128 | > 128 | > 128 | > 128 | > 128 | > 128 | > 128 | > 128 | > 128 | > 128 | CC(=O)c1sc(-c2ccc(-c3ccc(F)cc3)cc2)nc1C [Compound M8, 1-(2-(4′-fluoro-[1,1′-biphenyl]-4-yl)-4-methylthiazol-5-yl)ethanone] | 
> 128 | > 128 | > 128 | > 128 | > 128 | > 128 | > 128 | > 128 | > 128 | > 128 | > 128 | CC(=O)c1ccc(-c2ccc(-c3nc(C)c(C(C)=O)s3)cc2)cc1 [Compound M9, 1-(4′-(5-acetyl-4-methylthiazol-2-yl)-[1,1′-biphenyl]-4-yl)ethanone] | 

From patent US9353072B2, “Antimicrobial substituted thiazoles and methods of use” (Purdue Research Foundation, priority 2012, dated 2016)
